Patent US10647725B2, “Anti-infective 2-aminothiophenes” (priority 2016, dated 2020)
In brackets after ≈: the same amount, converted by molar mass.

Tested on: Mtb strains INH-R1, INH-R2, RIF-R1, RIF-R2, FQ-R1
Test: microbe, parasite or virus in culture
Assay type: cell-based
Conditions: Mycobacterium tuberculosis; read-out: MIC against resistant isolates

With `CCOC(=O)c1c(NC(=O)c2c(F)c(F)c(F)c(F)c2F)sc2c1CCN(CC)C2` [4{3,3,0}, ethyl 6-ethyl-2-(perfluorobenzamido)-4,5,6,7-tetrahydrothieno[2,3-c]pyridine-3-carboxylate] the MIC was 0.2 to 0.44 µM (≈ 0.0897 to 0.197 µg/mL).
